Drawing on patent US12565494B2, “Inhibitors of human respiratory syncytial virus and metapneumovirus” (priority 2022, dated 2026), this text covers EC50 for 13 compounds.

The subject of one assay is RSV-A2-GFP virus. The assay is described as follows: microbe, parasite or virus in culture. The format is cell-based, Human Respiratory Syncytial Virus. The settings on record: Calu-1 cells, RSV-A2-GFP MOI=1.2, 96 hrs, GFP-expressing cells counted. As for the experimental part:
To set up the assay, ARF vials were thawed in a 37° C. water bath and a control compound was resuspended in assay media DMEM (Dulbecco's Modified Eagle Medium) containing 2% FBS, 100 U/ml Penicillin-Streptomycin.
GFP sequence was derived from pJTI™ R4 Dest CMV N-EmGFP pA Vector (Invitrogen) and was cloned into the intergenic sequence between wild-type RSV-A2 P and M genes using standard recombineering techniques. Recombinant RSV-A2-GFP was propagated in Hep2 cells (human cells contain HeLa marker chromosomes and were derived via HeLa contamination, ATCC CCL-23) with a Multiplicity of Infection (MOI) of 0.1. Virus was harvested 3 days after infection by collecting all culture material and then freeze-thawing the mixture for 5 minutes. Working virus stocks were generated by thawing frozen viral cultures in 37° C. water bath, which were centrifuged at 218 g for 15 min at 4° C. 1/10 of 10×SPG (Biological Industries 06-3061-01-5A) were added and then mixed. The supernatant was aliquoted, frozen in liquid nitrogen, and then transferred to a −80° C. freezer for storage. Virus titer was determined by automated plaque assay in HEp-2 cells following methods described previously (Wen Z. et al.; 2019).
Calu-1 cells were purchased from ATCC (Cat #HTB-54) and were expanded in growth media (DMEM containing 10% FBS, 100 U/ml Penicillin-Streptomycin). To make ARF, cell culture media was removed and discarded and the cell layer was briefly rinsed with PBS to remove serum. 2.5 mL of TrypLE Express solution were added and cells incubated until dislodged, to which growth media was added and the cells were resuspended by gentle pipetting. Cells were counted for concentration and viability as determined by ViCell. Cells were centrifuged at RT, 300 g for 5 minutes to pellet cells. The supernatant was gently aspirated and the pellet was flicked to loosen cells. Cells were resuspended in an appropriate volume of freezing medium (DMEM containing 10% DMSO, 10% FBS, 100 U/ml Penicillin-Streptomycin) to achieve a concentration of 5×10^6 cells/mL. 1 mL aliquots of the cell suspension were transferred to freezing vials. The vials were put into an upright container in a −80° C. freezer overnight before transferring vials to liquid nitrogen for storage
Assay ready freeze-down (ARF, generation described separately) Calu-1 cells (ATCC HTB-54) were used. Compound plates were prepared by dispensing compounds dissolved in DMSO into the wells of a 384 well Corning® 3985 plate with an ECHO acoustic dispenser and compounds were tested in 10-point serial 3-fold dilution. […] To set up the assay, ARF vial(s) were thawed in a 37° C. water bath and were then resuspended into assay media (DMEM containing 2% FBS, 100 U/ml Penicillin-Streptomycin). Cells were counted using default parameters on ViCell and diluted to 20,000 cells/mL in assay media. RSV-A2-GFP virus was added to cells at 24,000 pfu/ml (MOI=1.2) and mixed by gentle inversion. 10 μL/well of 100% DMSO was dispensed as CellTiter-Glo (CTG) assay Max_E controls wells. The cells were dispensed at 50 μL/well using Bravo with 50 μL filtered tips into compound plates. Plates were covered with MicroClime lids, loaded with 7.5 mL of assay media to minimize evaporation, and were incubated at 37° C. and 5% CO2 for 96 hrs. Following incubation, distinct, GFP-expressing cells were counted using an Acumen imaging system with appropriate settings. A same-well CTG assay was performed by adding 10 μL/well reconstituted CellTiter-Glo reagent (Promega G7573) and plates were read on PerkinElmer Envision according to manufacturer's instructions. Raw data were loaded and analyzed in ActivityBase. Antiviral IC50 and cytotoxicity CC50 values were determined using a 4 parameter logistic fit based on the Levenberg-Marquardt algorithm. Model: 205-4 Parameter Logistic.

The next assay relates to hMPV-GFP virus. The assay is described as follows: microbe, parasite or virus in culture. It is filed as cell-based, Human Metapneumovirus. The conditions noted are these: VERO cells, hMPV-GFP MOI=1.25, 48 hrs, GFP-expressing cells counted. The protocol: GFP expressing rgHMPV #3 p3 was generated in Dr. Buchholz's lab (Biacchesi S. et al., J Virol. 2007 June; 81(11): 6057-6067) and propagated in VERO cells (ATCC Cat #CCL-81) with a Multiplicity of Infection (MOI) of 0.1. Virus was harvested 4 days after infection by collecting cultured material and was freeze-thaw cycled in liquid nitrogen twice. Working virus stocks were generated from thawing frozen samples in 37° C. water bath, which were centrifuged at 218 g for 15 min at 4° C. 1/10 of 10×SPG (Biological Industries 06-3061-01-5A) were added and then mixed. The supernatant was aliquoted, frozen in liquid nitrogen, and then transferred to a −80° C. freezer for storage. Virus titer was determined by performing titration test in 96-well plates and calculate approximate virus titer using GFP event/well data.
Compound plates were prepared by dispensing compounds dissolved in DMSO into wells of a 384 well Corning 3985 polystyrene flat clear bottom optical imaging microplate (202.5 nL/well) using an ECHO acoustic dispenser. Each compound was tested in 10-point serial 3-fold dilution (typical final concentrations: 40,300 nM-2 nM). […] Continuous culture of VERO cells was maintained in complete culture media (OptiMEM supplemented with 2 mM GlutaMAX™ and 100 U/ml Penicillin-Streptomycin). To set up the assay, VERO cells were trypsinized with 0.25% Trypsin-EDTA until cells were dislodged, then cells were re-suspended with 1 mL FBS. Cells were spundown at 300 g for 5 minutes and cells were washed twice with culture media and counted using default parameters on ViCell. Cells were then diluted to 100,000 cells/mL (5,000 cells/50 μL) in complete culture media+TrypLE Select (80 μL/mL). hMPV-GFP virus was added to cells at 125,000 pfu/mL (MOI=1.25) and were mixed by gentle inversion. 10 μL/well of 100% DMSO was dispensed to CellTiter-Glo (CTG) assay Max_E controls wells. Cells were dispensed at 50 μL/well using Bravo and 50 μL filtered tips into compound plates. Plates were covered with MicroClime lids and loaded with 7.5 mL of assay media to minimize evaporation. Plates were lightly shaken for 10 minutes at room temperature and then incubated at 37° C. and 5% CO2 for 48 hrs. Following incubation, distinct GFP-expressing cells were counted using an Acumen imaging system with appropriate settings. A same-well CTG assay was performed by adding 10 μL/well reconstituted CellTiter-Glo reagent (Promega G7573) and plates were read on PerkinElmer Envision according to manufacturer's instructions. Raw data were loaded and analyzed in ActivityBase. Antiviral IC50 and cytotoxicity CC50 values were determined using a 4 parameter logistic fit based on the Levenberg-Marquardt algorithm. Model: 205-4 Parameter Logistic.

Setting [1] is: Table I Summary of Activities for RSV, read-out: RSV EC50.
[2] abbreviates: Table II Summary of Activities for hMPV, read-out: RSV EC50.
The mark [3] stands for this setting: read-out: RSV EC50, Table I Summary of Activities for RSV.
The mark [4] stands for this setting: read-out: RSV EC50, Table II Summary of Activities for hMPV.
The mark [5] stands for this setting: human respiratory syncytial virus, Calu-1, 96 h, read-out: RSV EC50, Table I Summary of Activities for RSV.
Where [6] appears, read: Vero, 48 h, read-out: RSV EC50, Table II Summary of Activities for hMPV.

Where two headings read alike, the source gives them in different places.

On to `Cc1nn(-c2cscn2)cc1C(=O)N1C[C@@H]2[C@H](C1)[C@H]2Oc1cc(C(C)(C)N)cc(-c2ccc(F)cc2)n1` [Example 28, ((1R,5S,6s)-6-((4-(2-aminopropan-2-yl)-6-(4-fluorophenyl)pyridin-2-yl)oxy)-3-azabicyclo[3.1.0]hexan-3-yl)(3-methyl-1-(thiazol-4-yl)-1H-pyrazol-4-yl)methanone], for which the EC50 is under 10 nM with RSV-A2-GFP virus (setting [1]) and over 100 nM with hMPV-GFP virus (setting [2]).
In the case of `Cn1nc(-c2cscn2)cc1C(=O)N1C[C@@H]2C(Oc3cc(C(C)(N)CO)cc(-c4ccc(F)cc4)n3)[C@@H]2C1` (single isomer, unassigned; enantiomer 2) [Example 57B], the half-maximal effective concentration (EC50) in the assay with RSV-A2-GFP virus (setting [1]) is under 10 nM; in the assay on hMPV-GFP virus (setting [2]), over 100 nM.
Regarding `CC(N)c1cc(O[C@H]2[C@@H]3CN(C(=O)c4cc(-c5cscn5)nn4C)C[C@@H]32)nc(-c2ccc(F)cc2)c1` (single isomer, unassigned; enantiomer 2) [Example 61B], the figures for the EC50 in the assay with RSV-A2-GFP virus (setting [3]) and with hMPV-GFP virus (setting [4]) were under 10 nM and over 100 nM, respectively.
`Cn1nc(-c2cscn2)cc1C(=O)N1C[C@@H]2[C@H](C1)[C@H]2Oc1cc(C(C)(C)N)cc(OCC23CC(C2)C3)n1` [Example 42, ((1R,5S,6s)-6-((4-(2-aminopropan-2-yl)-6-(bicyclo[1.1.1]pentan-1-ylmethoxy)pyridin-2-yl)oxy)-3-azabicyclo[3.1.0]hexan-3-yl)(1-methyl-3-(thiazol-4-yl)-1H-pyrazol-5-yl)methanone]: the concentration giving a half-maximal response (EC50) in the assay on RSV-A2-GFP virus (setting [1]) is under 10 nM; in the assay on hMPV-GFP virus (setting [2]) it was over 100 nM.
Regarding `CC(O)c1nc(-c2cscn2)sc1C(=O)N1C[C@@H]2[C@H](C1)[C@H]2Oc1cc(C(C)(C)N)cc(-c2ccc(F)cc2)n1` (single isomer, unassigned; enantiomer 1) [Example 16A], the 50% effective concentration (EC50) with RSV-A2-GFP virus (setting [5]) is under 10 nM; in the assay with hMPV-GFP virus (setting [4]), 10 to 100 nM.
`CC(O)c1nc(-c2cscn2)sc1C(=O)N1C[C@@H]2[C@H](C1)[C@H]2Oc1cc(C(C)(C)N)cc(-c2ccc(F)cc2)n1` (single isomer, unassigned; enantiomer 2) [Example 16B]: the EC50 with RSV-A2-GFP virus (setting [3]) is under 10 nM; in the assay on hMPV-GFP virus (setting [4]), over 100 nM.
With `Cn1nc(-c2ncco2)cc1C(=O)N1C[C@@H]2[C@H](C1)[C@H]2Oc1cc(C(C)(C)N)cc(N2CCC(C)(C)CC2)n1` [Example 65, ((1R,5S,6s)-6-((4-(2-aminopropan-2-yl)-6-(4,4-dimethylpiperidin-1-yl)pyridin-2-yl)oxy)-3-azabicyclo[3.1.0]hexan-3-yl)(1-methyl-3-(oxazol-2-yl)-1H-pyrazol-5-yl)methanone], the EC50 was under 10 nM in the assay on RSV-A2-GFP virus (setting [5]) and over 100 nM with hMPV-GFP virus (setting [6]).
As to `Cc1nc(-c2ccon2)sc1C(=O)N1C[C@@H]2[C@H](C1)[C@H]2Oc1cc(C(C)(C)N)cc(-c2ccc(F)cc2)n1` [Example 5, ((1R,5S,6s)-6-((4-(2-aminopropan-2-yl)-6-(4-fluorophenyl)pyridin-2-yl)oxy)-3-azabicyclo[3.1.0]hexan-3-yl)(2-(isoxazol-3-yl)-4-methylthiazol-5-yl)methanone], the EC50 is under 10 nM in the assay on RSV-A2-GFP virus (setting [1]) and 10 to 100 nM in the assay on hMPV-GFP virus (setting [2]).
In the case of `Cn1nc(-c2cscn2)cc1C(=O)N1C[C@@H]2[C@H](C1)[C@H]2Oc1cc(C(N)=O)cc(-c2ccc(F)cc2)n1` [Example 47, 2-(4-fluorophenyl)-6-(((1R,5S,6s)-3-(1-methyl-3-(thiazol-4-yl)-1H-pyrazole-5-carbonyl)-3-azabicyclo[3.1.0]hexan-6-yl)oxy)isonicotinamide], the EC50 with RSV-A2-GFP virus (setting [5]) is under 10 nM; in the assay with hMPV-GFP virus (setting [6]), over 100 nM.
As to `Cn1nc(-c2cscn2)cc1C(=O)N1C[C@@H]2[C@H](C1)[C@H]2Oc1cc(C(C)(C)N)cc(C2(C)CCCC2)n1` [Example 63, ((1R,5S,6s)-6-((4-(2-aminopropan-2-yl)-6-(1-methylcyclopentyl)pyridin-2-yl)oxy)-3-azabicyclo[3.1.0]hexan-3-yl)(1-methyl-3-(thiazol-4-yl)-1H-pyrazol-5-yl)methanone], the EC50 was under 10 nM in the assay on RSV-A2-GFP virus (setting [5]) and over 100 nM with hMPV-GFP virus (setting [6]).
Turning to `CCc1nc(-c2nc[nH]n2)sc1C(=O)N1C[C@@H]2[C@H](C1)[C@H]2Oc1cc(C(C)(C)N)cc(-c2ccc(F)cc2)n1` [Example 11, ((1R,5S,6s)-6-((4-(2-aminopropan-2-yl)-6-(4-fluorophenyl)pyridin-2-yl)oxy)-3-azabicyclo[3.1.0]hexan-3-yl)(4-ethyl-2-(1H-1,2,4-triazol-3-yl)thiazol-5-yl)methanone], the EC50 in the assay on RSV-A2-GFP virus (setting [1]) was under 10 nM; in the assay on hMPV-GFP virus (setting [2]) it was over 100 nM.
For the compound `CC(C)(N)c1cc(O[C@H]2[C@@H]3CN(C(=O)c4sc(-c5ncco5)nc4C(F)F)C[C@@H]32)nc(-c2ccc(F)cc2)c1` [Example 15, ((1R,5S,6s)-6-((4-(2-aminopropan-2-yl)-6-(4-fluorophenyl)pyridin-2-yl)oxy)-3-azabicyclo[3.1.0]hexan-3-yl)(4-(difluoromethyl)-2-(oxazol-2-yl)thiazol-5-yl)methanone], the half-maximal effective concentration (EC50) is under 10 nM in the assay with RSV-A2-GFP virus (setting [1]) and over 100 nM with hMPV-GFP virus (setting [2]).
In the case of `Cn1nc(-c2cscn2)cc1C(=O)N1C[C@@H]2[C@H](C1)[C@H]2Oc1cc(C2(C)CCNC2=O)cc(-c2ccc(F)cc2)n1` (single isomer, unassigned; ent-3) [Example 51A], the EC50 in the assay with RSV-A2-GFP virus (setting [5]) was under 10 nM; in the assay with hMPV-GFP virus (setting [6]), over 100 nM.
